We go through 14 compounds from patent publication US9376391B2, “Difluoromethyl-nicotinic-tetrahydronaphthyl carboxamides as fungicides” (BAYER CROPSCIENCE AKTIENGESELLSCHAFT, priority 2012, dated 2016).

What is called chromatographic logP is lipophilicity estimated from chromatographic retention. Lower therefore signals lower lipophilicity.

One series relates to Sphaerotheca fuliginea. As to the kind of experiment: In vivo preventive test on Sphaerotheca fuliginea (powdery mildew on cucurbits). To be noted: preventive spray, gherkin plants, grading 12 days after contamination. Here is the method: In Vivo Preventive Test on Sphaerotheca fuliginea (Powdery Mildew on Cucurbits)
The active ingredients tested are prepared by homogenization in a mixture of acetone/tween/DMSO and then diluted with water to obtain the desired active material concentration.
Gherkin plants (“Vert petit de Paris” variety), sown in starter cups on a 50/50 peat soil-pozzolana substrate and grown at 24° C., are treated at the Z11 cotyledon stage by spraying with the active ingredient prepared as described above. Plants, used as controls, are treated with the mixture of acetone/tween/DMSO/water not containing the active material.
After 24 hours, the plants are contaminated by spraying the cotyledons with an aqueous suspension of Sphaerotheca fuliginea spores (100 000 spores per ml). The spores are collected from infected plants. The contaminated gherkin plants are incubated at about 20° C. and at 70-80% relative humidity.
Grading (% of efficacy) is carried out 12 days after the contamination, in comparison with the control plants.

Another series deals with Puccinia recondita. As to the kind of experiment: In vivo preventive test on Puccinia recondita (brown rust on wheat). To be noted: wheat, spray, graded 12 days after contamination vs control plants. Here is the method: In Vivo Preventive Test on Puccinia recondita (Brown Rust on Wheat) […] Wheat plants (“Scipion” variety), sown in starter cups on a 50/50 peat soil-pozzolana substrate and grown at 22° C., are treated at the 1-leaf stage (10 cm height) by spraying with the active ingredient prepared as described above. Plants, used as controls, are treated with the mixture of acetone/tween/DMSO/water not containing the active material. After 24 hours, the plants are contaminated by spraying the leaves with an aqueous suspension of Puccinia recondita spores (100 000 spores per ml). The spores are collected from an infected plant and are suspended in water containing 2.5 ml/1 of Tween 80 at 10%. The contaminated wheat plants are incubated for 24 hours at 20° C. and at 100% relative humidity, and then for 10 days at 20° C. and at 70-80% relative humidity. Grading (% of efficacy) is carried out 12 days after the contamination, in comparison with the control plants.

For another series, the system named is Septoria tritici. The experiment in a line: In vivo preventive test on Septoria tritici (leaf spot on wheat). To be noted: 500 ppm, preventive spray, wheat plants, grading 24 days after contamination. On the procedure:
In Vivo Preventive Test on Septoria tritici (Leaf Spot on Wheat)
(§1) The active ingredients tested are prepared by homogenization in a mixture of acetone/tween/DMSO, and then diluted with water to obtain the desired active material concentration.
Wheat plants (“Scipion” variety), sown in starter cups on a 50/50 peat soil-pozzolana substrate and grown at 22° C., are treated at the 1-leaf stage (10 cm height) by spraying with the active ingredient prepared as described above. Plants, used as controls, are treated with the mixture of acetone/tween/DMSO/water not containing the active material.
After 24 hours, the plants are contaminated by spraying the leaves with an aqueous suspension of cryopreserved Septoria tritici spores (500 000 spores per ml). The contaminated wheat plants are incubated for 72 hours at 18° C. and at 100% relative humidity, and then for 21 days at 90% relative humidity.
Grading (% of efficacy) is carried out 24 days after the contamination, in comparison with the control plants.

Series [1] is described as follows: log P by HPLC on reversed phase columns (EEC directive 79/831 Annex V.A8). It is filed as physicochemical. To be noted: Table 1, formula (I), HPLC/LC-MS at pH 2.7, 0.1% formic acid in water / acetonitrile, gradient 10% to 95%.
The next series concerns Uromyces appendiculatus. As to the kind of experiment: In vivo preventive test on Uromyces appendiculatus (bean rust). The note with it: preventive spray, bean plants, grading 11 days after contamination. On the procedure: In Vivo Preventive Test on Uromyces appendiculatus (Bean Rust) […] Bean plants (“Saxa” variety), sown in starter cups on a 50/50 peat soil-pozzolana substrate and grown at 24° C., are treated at the 2-leaf stage (9 cm height) by spraying with the active ingredient prepared as described above. Plants, used as controls, are treated with the mixture of acetone/tween/DMSO/water not containing the active material. After 24 hours, the plants are contaminated by spraying the leaves with an aqueous suspension of Uromyces appendiculatus spores (150 000 spores per ml). The spores are collected from infected plants and are suspended in water containing 2.5 ml/1 of Tween 80 at 10%. The contaminated bean plants are incubated for 24 hours at 20° C. and at 100% relative humidity, and then for 10 days at 20° C. and at 70-80% relative humidity. Grading (% of efficacy) is carried out 11 days after the contamination, in comparison with the control plants.

The subject of the next series is Alternaria brassicae. The experiment in a line: In vivo preventive test on Alternaria brassicae (leaf spot on radish). The note with it: dose 500 ppm, spray, graded 6 days after contamination vs control plants. Here is the method: In Vivo Preventive Test on Alternaria brassicae (Leaf Spot on Radish)
as §1
Radish plants (“Pernod Clair” variety), sown in starter cups on a 50/50 peat soil-pozzolana substrate and grown at 17° C., are treated at the cotyledon stage by spraying with the active ingredient prepared as described above. Plants, used as controls, are treated with the mixture of acetone/tween/DMSO/water not containing the active material.
After 24 hours, the plants are contaminated by spraying the cotyledons with an aqueous suspension of Alternaria brassicae spores (50 000 spores per ml). The spores are collected from a 15-day-old culture. The contaminated radish plants are incubated at 20° C. and at 100% relative humidity.
Grading (% of efficacy) is carried out 6 days after the contamination, in comparison with the control plants.

On to `CON=C1c2cccc(NC(=O)c3cccnc3C(F)F)c2CC1(C)C` (mixture of isomers) [Example 34], for which the Eff. % in the series on Sphaerotheca fuliginea (500 ppm) came to 100%; with Puccinia recondita (dose 500 ppm), 93%; with Septoria tritici it was 100%.
With `CON=C1CC(C)c2c(NC(=O)c3cccnc3C(F)F)cccc21` (racemic) [Example 30], the “logP^[a]” value in series [1] is 2.32^[a]. In addition, the results for the Eff. % with Puccinia recondita (dose 500 ppm), in the series with Septoria tritici and in the series with Uromyces appendiculatus (500 ppm) were 86%, 88% and 98%, respectively.
Turning to `CC1CC(CC(C)(C)C)c2cccc(NC(=S)c3cccnc3C(F)F)c21` (stereo not shown) [Example 59], the “logP^[a]” value in series [1] is 4.87^[a]. Also, the Eff. % with Sphaerotheca fuliginea (500 ppm) was found to be 98%; with Alternaria brassicae it was 88%; in the series on Puccinia recondita (dose 500 ppm), 98%; with Septoria tritici, 75%; in the series with Uromyces appendiculatus (500 ppm), 100%.
With `CCC1(CC)Cc2c(NC(=O)c3cccnc3C(F)F)cccc2C1C` (racemic) [Example 60], the “logP^[a]” value in series [1] is 4.11^[a]. Besides, the Eff. % with Sphaerotheca fuliginea (500 ppm) came out at 100%; in the series with Alternaria brassicae, 100%; with Puccinia recondita (dose 500 ppm) it was 98%; in the series with Septoria tritici, 100%; with Uromyces appendiculatus (500 ppm), 100%.
With `CCC1Cc2c(NC(=O)c3cc(C)cnc3C(F)F)cccc2C1(C)C` (stereo not shown) [Example 38, 2-(difluoromethyl)-N-(2-ethyl-1,1-dimethyl-2,3-dihydro-1H-inden-4-yl)-5-methylnicotinamide], the chromatographic logP in series [1] (reversed phase HPLC columns) worked out at 4.06. The Eff. % was determined as 80% in the series on Alternaria brassicae, 94% in the series with Puccinia recondita (dose 500 ppm) and 100% with Uromyces appendiculatus (500 ppm).
Turning to `CCCCON=C1CCc2c(NC(=O)c3cccnc3C(F)F)cccc21` [Example 6], the “logP^[a]” value in series [1] is 3.44^[a]. In the series with Alternaria brassicae, this compound registered an Eff. % of 71%.
As to `CC1OC(C)(C)c2c(Br)ccc(NC(=O)c3cccnc3C(F)F)c21` (stereo not shown) [Example 15], the “logP^[a]” value in series [1] is 2.89^[a]. In addition, the Eff. % in the series on Puccinia recondita (dose 500 ppm) was determined as 86%; with Septoria tritici it was 83%; in the series with Uromyces appendiculatus (500 ppm) it was 81%.
Take `CC1c2cccc(NC(=O)c3ccc(Cl)nc3C(F)F)c2CC1(C)C` (stereo not shown) [Example 64]: the “logP^[a]” value in series [1] is 4.04^[a]. Also, the Eff. % with Sphaerotheca fuliginea (500 ppm) is given as 94%; in the series on Puccinia recondita (dose 500 ppm), 98%; in the series with Uromyces appendiculatus (500 ppm), 84%.
Turning to `CC1(C)Cc2cccc(NC(=O)c3ccc(Cl)nc3C(F)F)c2C1` [Example 47], the “logP^[a]” value in series [1] was 3.76^[a]. The Eff. % in the series with Puccinia recondita (dose 500 ppm) is reported as 72%; in the series on Septoria tritici, 71%.
On to `CCC1(CC)c2cccc(NC(=O)c3cccnc3C(F)F)c2CC1C` (stereo not shown) [Example 91], for which, in series [1], the “logP^[a]” value is 3.99^[a]. Moreover, the Eff. % is 98% in the series on Sphaerotheca fuliginea (100 ppm), 94% in the series with Puccinia recondita (dose 100 ppm) and 100% in the series with Uromyces appendiculatus (100 ppm).
On to `Cc1cnc(C(F)F)c(C(=O)Nc2ccc(F)c3c2C(C)CC3(C)C)c1` (stereo not shown) [Example 23], for which the “logP^[a]” value in series [1] is 3.64^[a]. Moreover, the Eff. % in the series with Sphaerotheca fuliginea (500 ppm) worked out at 94%; in the series with Puccinia recondita (dose 500 ppm), 94%; in the series on Septoria tritici, 71%; in the series with Uromyces appendiculatus (500 ppm), 93%.
For `CC1OC(C)(C)c2cccc(NC(=O)c3c(C(F)F)ccnc3C(F)F)c21` (stereo not shown) [Example 40], in series [1], the “logP^[a]” value was 2.66^[a]. Moreover, the values for the Eff. % in the series with Puccinia recondita (dose 500 ppm), in the series with Septoria tritici and with Uromyces appendiculatus (500 ppm) were 81%, 71% and 100%, respectively.
As to `CCON=C1CC(C)c2c(NC(=O)c3cc(C)cnc3C(F)F)cccc21` (racemic) [Example 50], in series [1], the “logP^[a]” value is 2.99^[a]. Also, the Eff. % came to 94% with Puccinia recondita (dose 500 ppm) and 100% with Uromyces appendiculatus (500 ppm).
`CCCON=C1CCc2c(NC(=O)c3cccnc3C(F)F)cccc21` [Example 7]: the “logP^[a]” value in series [1] was 3.00^[a]. Also, the Eff. % with Alternaria brassicae was found to be 79%; in the series on Uromyces appendiculatus (500 ppm), 71%.
